Legend:
[1] = tested on: TPA-induced Mouse Ear Inflammation; assay: Assay (g): TPA-induced mouse ear inflammation (ear edema and MPO); type: in vivo; settings: for TPA % change in edema / change in MPO for TPA model: topically administered, doses 0.2 (dexamethasone), 0.1 (scalaradial), 0.3 (WY 50,295), dose unit not given
Description: (§1) Male Balb/c inbred mice were obtained from Charle River Breeding Laboratories (Kingston, N.Y.). Within a single experiment mice (22-25 g) were age-matched. These in vivo experiments typically involved use of 5-6 animals/group.
TPA (12-0-tetradecanoylphorbol 13-acetate) (Sigma Chemical Company) in acetone (4 mg/20 ml) was applied to the inner and outer surfaces of the left ear of BALB/c male mice. The thickness of both ears was then measured with a dial micrometer (Mitutoyo, Japan) at both 2 and 4 hours after treatment, and the data expressed as the change in thickness (10^-3 cm) between treated and untreated ears. […] After measuring the edema, the inflammed left ears were removed and stored at -70° C. until they were assayed for MPO (myeloperoxidase) activity where appropriate.
(§2) On the day of the assay, partially thawed ear tissues were minced and then homogenized (10% w/v) with a Tissumizer homogenizer (Tekmar Co.) in 50 mM phosphate buffer (pH 6) containing 0.5% HTAB. The tissue homogenates were taken through three cycles of freeze-thaw, followed by brief sonication (10 sec). The method of Bradley et al. was used with modifications as described. […] Supernatant MPO activity was quantified kinetically (change in absorbance measured over 3 min, sampled at 15-sec intervals) using a Beckman DU-7 spectrophotometer and a Kinetics Analysis package (Beckman Instruments, Inc.). One unit of MPO activity is defined as that degrading one micromole of peroxide per minute at 25° C.
Statistical analysis was done using Student's "t" test.

[2] = tested on: Arachidonic acid induced ear inflammation; assay: Assay (h): Arachidonic acid induced ear inflammation (ear edema and MPO); type: in vivo, mouse; settings: for effect in the AA ear model (in words): at concentrations which were effective in the TPA ear model
Description: as §1, §2
Arachidonic acid is dissolved in acetone (ling/ear) to the left ear of BALB/c male mice. The thickness of both ears was measured with a constant pressure thickness guage 1 hour after treatment and the data expressed as the change in thickness between treated and untreated ears. Test compounds or vehicle are given at the time of AA applciation. The inflammatory cell infiltration is measured by MPO activity as described above in the TPA ear edema assay. After the edema measurements are made, the inflamed ears are removed and assayed for MPO activity.

[3] = tested on: PGE2 release by human monocytes; assay: Assay (f): stimulated eicosanoid release by human monocytes, Prostaglandin E2; type: cell-based; settings: Monocyte, 0.25 h, A23187 1 μM, 15 min
Description: (§3) Human Monocyte Isolation. Leukocyte-rich leukopaks obtained from Biological Specialties (Lansdale, Pa.) were collected from male volunteers who were not taking antiinflammatory drugs. Leukopaks were centrifuged (90×g for 15 min) twice to remove the platelet-rich plasma. The cell pellet was washed by centrifugation and resuspended in HBSS without Ca^2+ or Mg^2+. Histopaque 1077 was layered under the cell suspension and centrifuged at 400×g for 30 min to obtain the buffy coat. The interfacial buffy coat, containing monocytes and lymphocytes, was removed and saved. The buffy coat was washed twice with HBSS Without Ca^2+ or Mg^2+ by centrifugation. The cell pellet (4-6×10^8 cells/30 mls) was resuspended in iso-osmotic media (RPMI-1640, 10% heat inactivated fetal bovine serum (FBS), 0.2 mM L-glutamine, 2.5 mM HEPES) and layered over an equal volume of 46% Percol mixture (10X PBS/Percol; 9.25/0.75) and 54% iso-osmotic media and centrifuged for 30 min at 1000×g (Marshall and Roshak, Biochem. Cell Biol. 71: 331-339, 1993). The monocyte population located at the interface of the Percoll gradient was removed and washed twice in HBSS without Ca^2+ or Mg^2+.
(§4) Measurement of Stimuli-Induced Eicosanoid Release Monocytes (5×10^6 /ml) were incubated as a suspension in serum-free RPMI-1640 medium containing the vehicle DMSO (<1%) or drug for 30 min at 27° C. after which vehicle or stimuli was added for the indicated time. The stimulating agent is solubilized in DMSO and appropriate vehicle controls were included in all experiments. The amount of stimuli was chosen from the linear portion of a concentration versus product curve usually representing 60-80% maximal stimulation over the indicated incubation time at 37° C. (A23187, 1 μM,(15 min). The reaction was terminated by reduction of pH through addition of citric acid and centrifugation (10 min, 400×g, 4° C.). Cell viability was monitored before and after experiments using trypan blue exclusion. The cell-free media was decanted and stored at -70° C. until analyzed. Prostaglandin E2 and LTC4 were directly measured in cell-free media using enzyme immunoassay (EIA) kits purchased from Caymen Chemical Co. (Ann Arbor, Mich.). Sample or standard dilutions were made with appropriate media and analyzed in triplicate. Results were obtained by extrapolation from a standard curve prepared in the media and expressed as pg or ng/ml of sample.

[4] = tested on: LTC4 release by human monocytes; assay: Assay (f): stimulated eicosanoid release by human monocytes, LTC4; type: cell-based; settings: Monocyte, 0.25 h, A23187 1 μM, 15 min
Description: as §3, §4

[5] = topically administered, doses 0.2 (dexamethasone), 0.1 (scalaradial), 0.3 (WY 50,295), dose unit not given

Structure (SMILES) | IC50 [3] | IC50 [4] | TPA % change in edema [1] | effect in the AA ear model (in words) [2] | AA change in edema [2, 5] | other results
C[C@H](C(=O)O)c1ccc2cc(OCc3ccc4ccccc4n3)ccc2c1 [WY 50,295] |  |  | -18% | strongly inhibits inflammation | -50% | change in MPO for TPA model [1]: -36
C[C@@H]1C[C@H]2[C@@H]3CCC4=CC(=O)C=C[C@]4(C)[C@@]3(F)[C@@H](O)C[C@]2(C)[C@@]1(O)C(=O)CO [dexamethasone] |  |  | -50% | little or no effect | -10% | change in MPO for TPA model [1]: -54; change in MPO for AA [2, 5]: 0
CC(=O)O[C@H]1C[C@@H]2[C@@]3(C)CCCC(C)(C)[C@@H]3CC[C@@]2(C)[C@@H]2CC=C(C=O)[C@H](C=O)[C@@]12C [scalaradial] |  |  | -46% | little or no effect | -11% | 
O=C(O)c1ccccc1Oc1ccc(C(F)(F)F)cc1NS(=O)(=O)c1ccc2ccccc2c1 [Example 3, 2-[2-(2-Naphthylsulfonamido)-4-trifluoromethylphenoxy]benzoic acid] | > 30000 nM | 2000 nM |  |  |  | 
O=C(O)c1ccccc1Oc1ccccc1NS(=O)(=O)c1cc(C(F)(F)F)cc(C(F)(F)F)c1 [Example 10, 2-[2-[3,5-Bis(trifluoromethyl)phenylsulfonamido]phenoxy]benzoic acid] | > 100000 nM | 1000 nM |  |  |  | 
CN(c1cc(C(F)(F)F)ccc1Oc1ccccc1C(=O)O)S(=O)(=O)c1cc(C(F)(F)F)cc(C(F)(F)F)c1 [Example 27, 2-[2-[3,5-bis(Trifluoromethyl)phenyl-N-methylsulfonamido]-4-trifluoromethylphenoxy]benzoic acid] |  |  |  |  |  | inhibition in the MPO assay ([1]; mouse ear inflammation, MPO): positive inhibition; response in the Edema aspects of this animal model ([1]; mouse ear inflammation, edema): not a significant response

Second part, led by results:

IC50 [3] | IC50 [4] | Structure (SMILES) | TPA % change in edema [1] | effect in the AA ear model (in words) [2] | AA change in edema [2, 5] | other results
> 30000 nM | 1000 nM | Cc1ccc(Oc2ccccc2C(=O)O)c(NS(=O)(=O)c2cc(C(F)(F)F)cc(C(F)(F)F)c2)c1 [Example 12, 2-[2-[3,5-bis(Trifluoromethyl)phenylsulfonamido]-4-methylphenoxy]benzoic acid] |  |  |  | 
10000 to 20000 nM | 1000 nM | CCCCCCCCS(=O)(=O)Nc1ccccc1Oc1ccccc1C(=O)O [Example 11, 2-[2-(Octylsulfonamido)phenoxy]benzoic acid] |  |  |  | 
> 3000 nM | 50 nM | CCC(C)(C)c1ccc(Oc2ccc(C(F)(F)F)cc2NS(=O)(=O)c2cc(C(F)(F)F)cc(C(F)(F)F)c2)c(C(=O)O)c1 [Example 17, 2-[2-[3,5-Bis(trifluoromethyl)phenyl]sulfonamido-4-trifluoromethylphenoxy]-5-(1,1-dimethylpropyl)benzoic acid] |  |  |  | 

Source: US5545669A, “Anti-inflammatory compounds” (priority 1994, dated 1996)
